From patent US20250290110A1, “MOGROSIDE COMPOSITIONS AND METHODS OF PRODUCING SAME” (Elo Life Systems, priority 2024, published 2025)
Several values for one entry are separate records, joined by “and”; a condition that tells them apart may be missing. Equal entries are not always repeated. Entries after “also recorded” stand apart in the source; their conditions may differ.

Columns and labels:
[1] = Sweetness concentration response curve against sucrose reference standards, trained sensory panel; format: in vivo, human; conditions: for Potency at 5 SEV / potency, times as sweet as sucrose at 5 SEV: spring water, room temperature; for potency, times as sweet as sucrose at 5 SEV: at 5 sucrose equivalent value (SEV)
Method: A blend composed of 80% purified mogroside-V (Chem Faces, CFS202202), 15% 11-oxo-mogroside-V (Chem Faces, CFS202201), and 5% mogroside IIIA-1 (Chem Faces, CFS202201) was diluted to six different concentrations (from 100 ppm to 650 ppm) in spring water (Ice Mountain, retail). For each solution, a set of five reference standards of sucrose dissolved in water in 0.5% (w/w) concentration increments was also prepared. Each concentration of the mogroside blend was evaluated by 6-8 trained judges. Samples were presented in 4-oz soufflé cups at room temperature, and the test sample was labeled with a random 3-digit code. Panelists tasted the blind-coded sample compared to the set of reference samples to determine the sweetness intensity score to the nearest 0.1 unit. Each concentration was evaluated in duplicate. The sweetness intensity scores were then plotted against the mogroside blend concentration to make a concentration response curve, and the best fitting Beidler equation was generated.
V90 is a 90% pure mogroside V containing about 6% 11-oxo mogroside-V. Five different concentrations of V90 (Huacheng Bio, LHGE-230401), ranging from 100 ppm to 500 ppm, were diluted in spring water (Ice Mountain, retail). Each dilution was presented to a panel of 7-8 judges experienced in evaluating sweeteners and was accompanied by a range of five sucrose solution reference standards bracketing the sweetness intensity of the test sample in 0.5% (w/w) increments. Panelists assigned a sweetness intensity score to each test sample, including blind duplicates, to the nearest 0.1 unit. All samples were served at room temperature in 4-oz soufflé cups with the test samples labeled with random 3-digit codes. Water and saltine crackers were provided for rinsing between samples.
Both individual mogrosides were also evaluated at five different concentrations in spring water (Ice Mountain, retail) for sweetness intensity. 11-oxo-mogroside was diluted to concentrations ranging from 200 ppm to 600 ppm and mogroside IIIA-1 was diluted to concentrations from 100 to 500 ppm. For each concentration, a set of five sucrose solution reference standards were prepared in 0.5% (w/w) increments to approximately bracket the sweetness intensity of the test sample. A panel of 6-8 trained judges evaluated each test sample in duplicate, accompanied by the corresponding reference standards, and assigned a sweetness intensity score to the sample to the nearest 0.1 unit. Samples were presented in 4-oz soufflé cups at room temperature, and the test sample was labeled with a random 3-digit code. The sweetness intensity scores were then plotted as a function of mogroside concentration to make a concentration response curve, and the best fitting Beidler equation was generated.
The error bars around each point represent 1 standard deviation. The data fit a Beidler equation with an r2 value of 0.961. The equation for this line is:
SEV=16.08*C/(521.2+C) • where SEV is the % sucrose equivalent sweetness as determined by sensory panel and C is the concentration of mogroside blend in ppm or mg/L.
P=SEV*10,000/C • where C is the concentration of the mogroside blend in ppm or mg/L and SEV is the % sucrose equivalent sweetness determined by sensory panel.

[2] = Descriptive analysis of sweetener attributes, sensory panel, 15-cm line scale; format: in vivo, human; conditions: for Astringent, average intensity score / Bitter Linger, average intensity score / Bitterness, average intensity score / Body, average intensity score / Caramel, average intensity score / Fruity, average intensity score / Licorice, average intensity score / Sweet Linger, average intensity score / Sweetness, average intensity score: about 6 SEV in spring water, 0=low, 60=high; for taste quality in words: sensory panel
Description: The same samples described above were presented to a panel of 6-9 experienced judges for descriptive analysis. Solutions were blind-coded with random 3-digit codes and served at room temperature for evaluation. Panelists individually scored attributes of each sample, such as sweetness intensity, bitterness, astringency, and the presence of side flavors such as licorice or fruitiness. Scores were based on a 15-cm line scale marked with evenly spaced 5-point increments from low (0) to high (60). Samples were evaluated in duplicate. Water and saltine crackers were provided for rinsing between samples.
(§1) A solution of V90 was made at 410 ppm in spring water (Ice Mountain, retail) to be about 6 SEV. A second solution was made at about 6 SEV of purified mogroside-V (Chem Faces, CFS202202) at 325 ppm. A panel of 7-8 trained judges evaluated the temporal properties and taste attributes of each sample, including blind duplicates, in the same manner described previously in the Mogroside Blend 80/15/5 Taste Quality sections.
The panel also evaluated the intensity of several sensory attributes such as bitterness, astringency, caramel flavor, and fruitiness. The same 15-cm line scale was used for scoring, labeled from low (0) to high (60) with evenly spaced 5-point increments. The samples were served in 4-oz soufflé cups that were labeled with random 3-digit codes. Samples were evaluated at room temperature and included blind duplicates. Water and saltine crackers were provided for rinsing between samples. A 400-ppm solution of V90 (Huacheng Bio, LHGE-230401) was tasted as a reference at the beginning of the descriptive analysis session for calibration verification among panelists.

[3] = Temporal properties: onset of sweetness, time to maximum sweetness, aftertaste decay, trained sensory panel; format: in vivo, human
Method: Equi-sweet solutions at about 6 SEV were made in spring water (Ice Mountain, retail) of the following sweeteners: purified mogroside-V (Chem Faces, CFS202202), rebaudioside M (95%, Tate & Lyle, lot #1802-2302-1), rebaudioside A (95%, Tate & Lyle, 210617-01), and monk fruit (50% mogroside V, Tate & Lyle, 45GF220305). Another solution was prepared at about 6 SEV of a blend composed of 80% purified mogroside-V (Chem Faces, CFS202202), 15% 11-oxo-mogroside-V (Chem Faces, CFS202201), and 5% mogroside IIIA-1 (Chem Faces, CFS202201). The concentration of each solution can be found in Table 7.
A set of samples of each solution was evaluated by a panel of 7-9 trained judges. Panelists measured the time to onset of sweetness and time to reach maximum sweetness using a timer. Sweetness decay after expectorating was measured by rating sweetness intensity every 5 seconds on a 15-cm line scale graduated in evenly spaced 5-point increments and labeled low (0) to high (60). Samples were served at room temperature in 4-oz soufflé cups, labeled with random 3-digit codes. Water and saltine crackers were provided for rinsing between samples. Blind duplicates were evaluated in a second panel under the same conditions.
as §1
Two individual mogroside components of the blend, 11-oxo mogroside-V (Chem Faces, […]) and mogroside III-A1 (Chem Faces, 202301), were evaluated separately in spring water (Ice Mountain, retail) to determine the concentration needed to reach approximately 6 SEV. Solutions were then prepared at 3600 ppm of 11-oxo-mogroside-V and 600 ppm mogroside IIIA-1.
A panel of 6-7 trained judges evaluated the solutions by measuring the time to onset of sweetness and time to reach maximum sweetness using a timer. Decay of lingering aftertaste after expectorating was measured by rating sweetness intensity every 5 seconds on a 15-cm line scale graduated in evenly spaced 5-point increments and labeled low (0) to high (60). Samples were served at room temperature in 4-oz soufflé cups, labeled with random 3-digit codes, including blinded duplicates. Water and saltine crackers were provided for rinsing between samples.

[4] = cited from earlier work
[5] = solutions at about 6 SEV, room temperature
[6] = sucrose, not evaluated in this test

Compound | SEV at 1,000 ppm ([1]; from Beidler curve) [SEV] | Potency at 5 SEV [1] [×] | Astringent, average intensity score [2] | Bitter Linger, average intensity score [2] | Bitterness, average intensity score [2] | Body, average intensity score [2] | Caramel, average intensity score [2] | Fruity, average intensity score [2] | Licorice, average intensity score [2] | Sweet Linger, average intensity score [2] | Sweetness, average intensity score [2] | taste quality in words [2] | sweetness decay time after expectorating ([3]; solutions at about 6 SEV) | further results
C[C@H](CC[C@@H](O[C@@H]1O[C@H](CO[C@@H]2O[C@H](CO)[C@@H](O)[C@H](O)[C@H]2O)[C@@H](O)[C@H](O)[C@H]1O[C@@H]1O[C@H](CO)[C@@H](O)[C@H](O)[C@H]1O)C(C)(C)O)[C@H]1CC[C@@]2(C)[C@@H]3CC=C4[C@@H](CC[C@H](O[C@@H]5O[C@H](CO[C@@H]6O[C@H](CO)[C@@H](O)[C@H](O)[C@H]6O)[C@@H](O)[C@H](O)[C@H]5O)C4(C)C)[C@]3(C)C(=O)C[C@]12C [11-oxo-mogroside V] | 4.2 | 28 | 4.3 | 0.7 | 7.7 | 12.7 | 4.8 | 2.1 | 2.1 | 17.1 | 37.1 | slight bitterness | about 45 seconds | potency, times as sweet as sucrose at 5 SEV ([1]; listed as 11-oxo mogroside-V): approximately 28 times as sweet as sucrose; potency, times as sweet as sucrose at 5 SEV ([1]; listed as 11-oxo-mogroside-V): 28 times as sweet as sucrose
C[C@H](CC[C@@H](O[C@@H]1O[C@H](CO[C@@H]2O[C@H](CO)[C@@H](O)[C@H](O)[C@H]2O)[C@@H](O)[C@H](O)[C@H]1O[C@@H]1O[C@H](CO)[C@@H](O)[C@H](O)[C@H]1O)C(C)(C)O)[C@H]1CC[C@@]2(C)[C@@H]3CC=C4[C@@H](CC[C@H](O)C4(C)C)[C@]3(C)[C@H](O)C[C@]12C [Mogroside IIIA-1, mogroside IIIA-1] |  | 71 | 5.1 | 37.3 | 37.3 | 12.1 | 1.9 | 0.7 | 2.2 | 5.7 | 34.5 | strongly bitter with a strong lingering bitter aftertaste |  | SEV at which the concentration response curve plateaus ([1]; in vivo): 4-5 SEV; concentration at which sweetness plateaus ([1]; in vivo): about 500 ppm; taste quality in words ([2]; listed as mogroside IIIA-1): strong bitter aftertaste that almost immediately overwhelmed any lingering sweet sensation; duration of bitter taste after expectorating ([3]; 600 ppm, about 6 SEV): more than 60 seconds
C[C@H](CC[C@@H](O[C@@H]1O[C@H](CO[C@@H]2O[C@H](CO)[C@@H](O)[C@H](O)[C@H]2O)[C@@H](O)[C@H](O)[C@H]1O[C@@H]1O[C@H](CO)[C@@H](O)[C@H](O)[C@H]1O)C(C)(C)O)[C@H]1CC[C@@]2(C)[C@@H]3CC=C4[C@@H](CC[C@H](O[C@@H]5O[C@H](CO[C@@H]6O[C@H](CO)[C@@H](O)[C@H](O)[C@H]6O)[C@@H](O)[C@H](O)[C@H]5O)C4(C)C)[C@]3(C)[C@H](O)C[C@]12C [Mogroside V, mogroside V] | 11.5 | 185 | 2.9 and 2.5 | 0.0 | 1.1 and 1.4 | 11.9 and 12.1 | 4.2 and 4.5 | 2.6 and 3.0 | 0.8 and 0.7 | 16.2 and 14.3 | 35.9 and 36.3 |  |  | Beidler equation denominator constant (SEV=a*C/(b+C), b) ([1]; C = concentration): 920.8 ppm or mg/L; Beidler equation numerator constant (SEV=a*C/(b+C), a) ([1]; SEV = % sucrose equivalent sweetness): 22.03; potency, times as sweet as sucrose at 5 SEV ([1]; listed as mogroside V): 185 times as sweet as sucrose; potency, times as sweet as sucrose at 5 SEV ([1]; listed as mogroside-V): about 185 times as sweet as sucrose; potency, times as sweet as sucrose at 5 SEV ([1]; listed as purified Mog-V): ~200 times as sweet as sucrose; Potency at 10 SEV ([1]; at 10 SEV, from Beidler curve): 131×; onset of sweetness [3, 5]: 1.1 s; time to reach maximum sweetness [3, 5]: 2.5 s
C=C1C[C@@]23CC[C@H]4[C@@](C)(CCC[C@@]4(C)C(=O)O[C@@H]4O[C@H](CO)[C@@H](O)[C@H](O)[C@H]4O)[C@@H]2CC[C@]1(O[C@@H]1O[C@H](CO)[C@@H](O)[C@H](O[C@@H]2O[C@H](CO)[C@@H](O)[C@H](O)[C@H]2O)[C@H]1O[C@@H]1O[C@H](CO)[C@@H](O)[C@H](O)[C@H]1O)C3 [Rebaudioside A, rebaudioside A] |  |  |  |  |  |  |  |  |  |  |  | a bitter taste continued to linger; also recorded: notable bitterness compared to the other sweeteners | about 40 seconds | 
C=C1C[C@@]23CC[C@H]4[C@@](C)(CCC[C@@]4(C)C(=O)O[C@@H]4O[C@H](CO)[C@@H](O)[C@H](O[C@@H]5O[C@H](CO)[C@@H](O)[C@H](O)[C@H]5O)[C@H]4O[C@@H]4O[C@H](CO)[C@@H](O)[C@H](O)[C@H]4O)[C@@H]2CC[C@]1(O[C@@H]1O[C@H](CO)[C@@H](O)[C@H](O[C@@H]2O[C@H](CO)[C@@H](O)[C@H](O)[C@H]2O)[C@H]1O[C@@H]1O[C@H](CO)[C@@H](O)[C@H](O)[C@H]1O)C3 [Rebaudioside M, rebaudioside M] |  |  |  |  |  |  |  |  |  |  |  |  | 50 s | 
OC[C@H]1O[C@@](CO)(O[C@H]2O[C@H](CO)[C@@H](O)[C@H](O)[C@H]2O)[C@@H](O)[C@@H]1O [sucrose] |  |  |  |  |  |  |  |  |  |  |  |  |  | sweetness decay time (typical value) ([4]; 6 SEV solution of sucrose): 20 to 25 s; onset of sweetness (general value, not evaluated in this test) [4, 6]: about 0.5 seconds; time to reach maximum sweetness (general value, not evaluated in this test) [4, 6]: around 1 second
